Patent publication US9522888B2, “Substituted bicyclic compounds” (BRISTOL-MYERS SQUIBB COMPANY, priority 2014, dated 2016)
pEC50, pIC50: −log10 of the molar value.

Legend:
[1] = molecular target: human S1P1 (Homo sapiens (Human), UniProt P21453); test: S1P1 binding assay (33P-S1P radioligand competition, CHO cell membranes); conditions: phosphate examples; read-out: S1P1 Binding
Experimental: Membranes were prepared from CHO cells expressing human S1P1. Cells pellets (1×10^9 cells/pellet) were suspended in buffer containing 20 mM HEPES (4-(2-hydroxyethyl)-1-piperazineethanesulfonic acid), pH 7.5, 50 mM NaCl, 2 mM EDTA (Ethylenediaminetetraacetic acid) and Protease Inhibitor cocktail (Roche), and disrupted on ice using the Polytron homogenizer. The homogenate was centrifuged at 20,000 rpm (48,000 g) and the supernatant was discarded. The membrane pellets were resuspended in buffer containing 50 mM HEPES, pH 7.5, 100 mM NaCl, 1 mM MgCl2, 2 mM EDTA and stored in aliquots at −80° C. after protein concentration determination.

[2] = molecular target: S1P1 (membranes prepared from S1P1/CHO cells) (Homo sapiens (Human), UniProt P21453); test: Receptor [35S] GTPγS binding assay (S1P1 GTPγS); assay type: biochemical; conditions: phosphate examples; read-out: S1P1 GTPγS
Experimental: (§1) Receptor [^35S] GTPγS Binding Assays: (S1P1 GTPγS/S1P3 GTPγS)
Compounds were loaded in a 384 Falcon v-bottom plate (0.5 μl/well in a 11 point, 3-fold dilution). Membranes prepared from S1P1/CHO cells or EDG3-Gal5-bla HEK293T cells (EDG3 equivalent S1P3) were added to the compound plate (40 μl/well, final protein 3 μg/well) with MULTIDROP®. [^35S] GTP (1250 Ci/mmol, Perkin Elmer) was diluted in assay buffer: 20 mM HEPES, pH7.5, 10 mM MgCl2, 150 mM NaCl, 1 mM EGTA (ethylene glycol tetraacetic acid), 1 mM DTT (Dithiothreitol), 10 μM GDP, 0.1% fatty acid free BSA, and 10 μg/ml Saponin to 0.4 nM. 40 μl of the [^35S] GTP solution was added to the compound plate with a final concentration of 0.2 nM. The reaction was kept at room temperature for 45 min. At the end of incubation, all the mixtures in the compound plate were transferred to Millipore 384-well FB filter plates via the VELOCITY11® Vprep liquid handler. The filter plate was washed with water 4 times by using the manifold Embla plate washer and dried at 60° C. for 45 min. MicroScint 20 scintillation fluid (30 μl) was added to each well for counting on the Packard TOPCOUNT®. […]

[3] = molecular target: S1P3 (membranes prepared from EDG3-Gal5-bla HEK293T cells) (Homo sapiens (Human), UniProt Q99500); test: Receptor [35S] GTPγS binding assay (S1P3 GTPγS); assay type: biochemical; conditions: phosphate examples; read-out: S1P3 GTPγS
Experimental: as §1
Compounds were loaded in a 384 Falcon v-bottom plate (0.5 μl/well in a 11 point, 3-fold dilution). Membranes prepared from S1P1/CHO cells or EDG3-Gal5-bla HEK293T cells (EDG3 equivalent S1P3) were added to the compound plate (40 μl/well, final protein 3 μg/well) with MULTIDROP®. [^35S] GTP (1250 Ci/mmol, Perkin Elmer) was diluted in assay buffer: 20 mM HEPES, pH7.5, 10 mM MgCl2, 150 mM NaCl, 1 mM EGTA (ethylene glycol tetraacetic acid), 1 mM DTT (Dithiothreitol), 10 μM GDP, 0.1% fatty acid free BSA, and 10 μg/ml Saponin to 0.4 nM. 40 μl of the [^35S] GTP solution was added to the compound plate with a final concentration of 0.2 nM. The reaction was kept at room temperature for 45 min. At the end of incubation, all the mixtures in the compound plate were transferred to Millipore 384-well FB filter plates via the VELOCITY11® Vprep liquid handler. The filter plate was washed with water 4 times by using the manifold Embla plate washer and dried at 60° C. for 45 min. MicroScint 20 scintillation fluid (30 μl) was added to each well for counting on the Packard TOPCOUNT®.
A smaller value for GTPγS S1P1 EC50 value indicated greater activity for the compound in the GTPγS S1P1 binding assay. A larger value for the GTPγS S1P3 EC50 value indicated less activity in the GTPγS S1P3 binding assay. […] Thus the compounds of the present invention may be used in treating, preventing, or curing various S1P1 receptor-related conditions while reducing or minimizing the side effects due to S1P3 activity. The selectivity of the compounds of the present invention indicate their potential use in treating, preventing, or curing autoimmune and inflammatory diseases such as multiple sclerosis, rheumatoid arthritis, inflammatory bowel disease, lupus, psoriasis, or vascular diseases, while reducing or minimizing possible side effects due to S1P3 activity. Other potential uses of the compounds of the present invention include minimizing or reducing rejection of transplanted organs, while reducing or minimizing side effects due to S1P3 activity.

[4] = molecular target: hS1P1/CHO cells (Homo sapiens (Human), UniProt P21453); test: hS1P1 ERK phosphorylation (S1P1 pERK); assay type: cell-based; conditions: phosphate examples
Experimental: hS1P1 ERK Phosphorylation (S1P1 pERK)
hS1P1/CHO cells were plated into BD Amine 384-well plates the day before the assay. On the day of the assay, growth medium was removed and replaced with serum-free medium (Ham's F-12 Invitrogen) and incubated for 2 hours. Test compounds pre-diluted in HBSS (Gibco)/20 mM HEPES (Gibco) were transferred to the cell plates and incubated for 7 minutes at 37° C. Cells were lysed in lysis buffer (Perkin Elmer) and phospho-ERK was measured using the SureFire pERK kit (Perkin Elmer) as described by the manufacturer. Data was plotted as percentage activation of the test compound relative to the efficacy of 10 μM S1P.

Chain of S1P3 (membranes prepared from EDG3-Gal5-bla HEK293T cells) (Q99500 whole entry): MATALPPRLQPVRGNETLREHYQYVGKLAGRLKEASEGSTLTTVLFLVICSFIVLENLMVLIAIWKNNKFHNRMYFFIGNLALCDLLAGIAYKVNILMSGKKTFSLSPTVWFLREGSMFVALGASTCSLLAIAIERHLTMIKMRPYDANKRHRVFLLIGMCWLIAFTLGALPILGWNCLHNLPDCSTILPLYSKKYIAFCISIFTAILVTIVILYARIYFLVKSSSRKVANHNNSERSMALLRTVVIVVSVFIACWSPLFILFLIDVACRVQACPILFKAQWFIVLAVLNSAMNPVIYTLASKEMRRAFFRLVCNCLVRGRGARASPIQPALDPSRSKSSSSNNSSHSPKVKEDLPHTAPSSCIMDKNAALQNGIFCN
Chain of human S1P1 (P21453 whole entry): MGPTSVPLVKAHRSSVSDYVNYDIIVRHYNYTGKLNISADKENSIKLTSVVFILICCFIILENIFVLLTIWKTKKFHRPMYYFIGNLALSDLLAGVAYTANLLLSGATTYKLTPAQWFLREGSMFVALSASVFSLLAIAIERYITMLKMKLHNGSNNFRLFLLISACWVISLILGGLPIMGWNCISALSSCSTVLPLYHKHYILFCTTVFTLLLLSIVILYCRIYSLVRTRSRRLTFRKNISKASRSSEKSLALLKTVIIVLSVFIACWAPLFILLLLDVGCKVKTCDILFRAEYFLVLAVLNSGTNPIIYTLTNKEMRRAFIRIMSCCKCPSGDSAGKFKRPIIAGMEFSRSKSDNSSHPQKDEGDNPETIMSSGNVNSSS
Chain of S1P1 (membranes prepared from S1P1/CHO cells) (P21453 whole entry): as above
Chain of hS1P1/CHO cells (P21453 whole entry): as above

Row | SMILES | pIC50 [1] | pEC50 [2] | pEC50 [3] | pEC50 [4]
1 | CCCCC(C)(C)C(=O)OC1CCc2cc([C@H]3CC[C@@](N)(COP(=O)(O)O)C3)ccc2C1 (stereo partly drawn) [compound 624] | 5.00 to 6.00 | > 8.00 | < 6.20 | 6.00 to 7.00
2 | N[C@]1(COP(=O)(O)O)CC[C@H](c2ccc3c(c2)CC[C@@H](CCCC2CCOCC2)C3)C1 [compound 557] | 7.00 to 8.00 | 7.00 to 8.00 | < 6.20 | 7.00 to 8.00
3 | CCC=CCOC[C@@H]1CCc2cc([C@H]3CC[C@](N)(COP(=O)(O)O)C3)ccc2C1 [compound 456] | 7.00 to 8.00 | > 8.00 | < 6.20 | > 8.00
4 | Cc1ccc(OC[C@@H]2CCc3cc([C@H]4CC[C@](N)(COP(=O)(O)O)C4)ccc3C2)cc1 [compound 467] | 7.00 to 8.00 | 7.00 to 8.00 | < 6.20 | 7.00 to 8.00
5 | CCCCCC[C@H]1Cc2ccc([C@H]3CC[C@](N)(COP(=O)(O)O)C3)cc2CO1 [compound 426] | 7.00 to 8.00 | > 8.00 | < 6.20 | > 8.00
6 | COc1ccc(F)c(OC[C@@H]2CCc3cc([C@H]4CC[C@](N)(COP(=O)(O)O)C4)ccc3C2)c1 [compound 484] | 6.00 to 7.00 | 7.00 to 8.00 | < 6.20 | 7.00 to 8.00
7 | COCc1ccc(C[C@@H]2CCc3cc([C@H]4CC[C@](N)(COP(=O)(O)O)C4)ccc3C2)cc1 [compound 550] | 7.00 to 8.00 | 7.00 to 8.00 | < 6.20 | > 8.00
8 | N[C@]1(COP(=O)(O)O)CC[C@H](c2ccc3c(c2)CC[C@H](COCc2ccccc2)C3)C1 [compound 445] | 7.00 to 8.00 | 7.00 to 8.00 | < 6.20 | 7.00 to 8.00
9 | CC(C)OCCCC[C@H]1CCc2cc([C@H]3CC[C@](N)(COP(=O)(O)O)C3)ccc2C1 [compound 610] | 7.00 to 8.00 | > 8.00 | < 7.00 | > 8.00
10 | CC(C)Oc1cccc(C[C@@H]2CCc3cc([C@H]4CC[C@](N)(COP(=O)(O)O)C4)ccc3C2)c1 [compound 560] | 7.00 to 8.00 | > 8.00 | < 6.20 | > 8.00
11 | CCOc1ccc(C[C@@H]2CCc3cc([C@H]4CC[C@](N)(COP(=O)(O)O)C4)ccc3C2)cc1 [compound 549] | 6.00 to 7.00 | 6.00 to 7.00 | < 6.20 | > 8.00
12 | CCOc1cccc(C[C@H]2CCc3cc([C@H]4CC[C@](N)(COP(=O)(O)O)C4)ccc3C2)c1 [compound 548] | 7.00 to 8.00 | 7.00 to 8.00 | < 6.20 | > 8.00
13 | N[C@@]1(COP(=O)(O)O)CC[C@@H](c2ccc3c(c2)CC[C@H](OCCOCc2cccs2)C3)C1 (single isomer, unassigned) [compound 589] | > 8.00 | 7.00 to 8.00 | < 7.00 | > 8.00
14 | COc1cccc(/C=C/[C@@H]2CCc3cc([C@H]4CC[C@](N)(COP(=O)(O)O)C4)ccc3C2)c1 [compound 643] | > 8.00 | 7.00 to 8.00 | < 6.20 | 7.00 to 8.00
15 | Cc1ccccc1SC[C@@H]1CCc2cc([C@H]3CC[C@](N)(COP(=O)(O)O)C3)ccc2C1 [compound 520] | 7.00 to 8.00 | 7.00 to 8.00 | < 6.20 | 7.00 to 8.00
16 | COCc1cccc(C[C@@H]2CCc3cc([C@H]4CC[C@](N)(COP(=O)(O)O)C4)ccc3C2)c1 [compound 552] | > 8.00 | 7.00 to 8.00 | < 6.20 | 7.00 to 8.00

The next lines start with the values.

Row | pIC50 [1] | pEC50 [2] | pEC50 [3] | pEC50 [4] | SMILES
17 | > 8.00 | 7.00 to 8.00 | < 6.20 | > 8.00 | CCCCO[C@H]1CCc2cc([C@H]3CC[C@](N)(COP(=O)(O)O)C3)ccc2C1 [compound 436]
18 | > 8.00 | 7.00 to 8.00 | < 6.20 | 7.00 to 8.00 | N[C@]1(COP(=O)(O)O)CC[C@H](c2ccc3c(c2)CC[C@@H](CSCCc2ccccc2)C3)C1 [compound 522]
19 | > 8.00 | > 8.00 | < 6.20 | > 8.00 | COc1cccc(CO[C@H]2CCc3cc([C@H]4CC[C@](N)(COP(=O)(O)O)C4)ccc3C2)c1 [compound 442]
20 | > 8.00 | 7.00 to 8.00 | < 6.20 | > 8.00 | CCCCC1CCc2cc([C@H]3CC[C@](N)(COP(=O)(O)O)C3)ccc2C1=O (stereo partly drawn) [compound 635]
21 | > 8.00 | 7.00 to 8.00 | < 6.20 | > 8.00 | N[C@]1(COP(=O)(O)O)CC[C@H](c2ccc3c(c2)CC[C@H](COc2ccccc2)C3)C1 [compound 459]
22 | > 8.00 | > 8.00 | < 6.20 | > 8.00 | CC(C)(C)CCSC[C@H]1CCc2cc([C@H]3CC[C@](N)(COP(=O)(O)O)C3)ccc2C1 [compound 518]
23 | > 8.00 | 7.00 to 8.00 | < 6.20 | > 8.00 | CC(C)CCSC[C@@H]1CCc2cc([C@H]3CC[C@](N)(COP(=O)(O)O)C3)ccc2C1 [compound 510]
24 | > 8.00 | 7.00 to 8.00 | < 6.20 | > 8.00 | COc1ccccc1OC[C@@H]1CCc2cc([C@H]3CC[C@](N)(COP(=O)(O)O)C3)ccc2C1 [compound 475]
